The test system of the data set is cultured human gingival tissues. Format: in vitro ADME. The settings on record: as excipient in naloxone ODF.

SMILES strings stand for the structures.

Procedure: Each ODF sample was die-cut into 1 inch (2.54 cm) diameter discs (area, 5.067 cm^2). To simulate the oral mucosa, an in vitro oral mucosa 3D model produced from primary human gingival keratinocytes was used (SkinAxis, LLC, North Brunswick, N.J., USA). Briefly, the cultured human gingival tissues were incubated in 6-well plates at 37° C. in a CO2 incubator. To prepare the receiver fluid, 0.3 mL of prewarmed phosphate buffered solution at pH 6.8 was pipetted into each well. Next, 0.5 mL of donor solution or the die-cut discs were placed onto the tissues. The plates were returned to the incubator for 15 minutes. The tissues were moved to the next wells and the receiver media was collected. This was repeated for the remaining time points. The receiver media was analyzed by HPLC in a 5 μm, 4.6×50 mm KINETEX C18 column (Phenomenex, Inc., Torrance, Calif., USA) using art standard protocols. Briefly, the mobile phase comprised 50 mM NH4Ac/Acetonitrile at 88/22. The flow rate was 1.0 mL/min and the column temperature was about 40° C. with a UV of 220 nm and a retention time of 1.8 min.

For `CCCCCCCC/C=C\CCCCCCCCO` [oleyl alcohol, Oleyl alcohol], the “effect of permeation enhancer on permeation percentage of the naloxone” value is reported as “increased the permeation percentage of the naloxone”.

The values above are taken from patent publication US20180228728A1, “DOSAGE FORM FOR ADMINISTRATION OF OPIOID ANTAGONISTS” (priority 2017, published 2018).
